Experimental data as given in PubChem BioAssay (NCI).
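Five compound concentrations were applied to cells in 96-well plates for 48 hours; endpoints were derived by simple linear interpolation of the resulting dose-response curve. At the GI50, growth is halved. TGI: total growth inhibition.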

Key:
Assay in all cases: DTP human tumour cell line panel, 48 h
786-0 renal = tested on: 786-0 renal
A498 renal = tested on: A498 renal
A549 NSCLC = tested on: A549 NSCLC
ACHN renal = tested on: ACHN renal
BT-549 breast = tested on: BT-549 breast
CAKI-1 renal = tested on: CAKI-1 renal
CCRF-CEM leukemia = tested on: CCRF-CEM leukemia
DU-145 prostate = tested on: DU-145 prostate
EKVX NSCLC = tested on: EKVX NSCLC
HCC-2998 colon = tested on: HCC-2998 colon
HL-60(TB) leukemia = tested on: HL-60(TB) leukemia
HOP-62 NSCLC = tested on: HOP-62 NSCLC
HOP-92 NSCLC = tested on: HOP-92 NSCLC
HS 578T breast = tested on: HS 578T breast
HT29 colon = tested on: HT29 colon
IGROV1 ovarian = tested on: IGROV1 ovarian
KM12 colon = tested on: KM12 colon
LOX IMVI melanoma = tested on: LOX IMVI melanoma
M14 melanoma = tested on: M14 melanoma
MALME-3M melanoma = tested on: MALME-3M melanoma
MCF7 breast = tested on: MCF7 breast
MDA-MB-231 breast = tested on: MDA-MB-231 breast
MDA-MB-435 = tested on: MDA-MB-435
MOLT-4 leukemia = tested on: MOLT-4 leukemia
NCI-H226 lung = tested on: NCI-H226 lung
NCI-H23 lung = tested on: NCI-H23 lung
NCI-H460 lung = tested on: NCI-H460 lung
NCI/ADR-RES ovarian = tested on: NCI/ADR-RES ovarian
OVCAR-4 ovarian = tested on: OVCAR-4 ovarian
OVCAR-5 ovarian = tested on: OVCAR-5 ovarian
PC-3 prostate = tested on: PC-3 prostate
RPMI-8226 leukemia = tested on: RPMI-8226 leukemia
RXF 393 renal = tested on: RXF 393 renal
SF-268 CNS = tested on: SF-268 CNS
SF-295 CNS = tested on: SF-295 CNS
SF-539 CNS = tested on: SF-539 CNS
SK-MEL-28 melanoma = tested on: SK-MEL-28 melanoma
SK-MEL-5 melanoma = tested on: SK-MEL-5 melanoma
SK-OV-3 ovarian = tested on: SK-OV-3 ovarian
SN12C renal = tested on: SN12C renal
SNB-19 CNS = tested on: SNB-19 CNS
SNB-75 CNS = tested on: SNB-75 CNS
SR leukemia = tested on: SR leukemia
SW-620 colon = tested on: SW-620 colon
T-47D breast = tested on: T-47D breast
TK-10 renal = tested on: TK-10 renal
U251 CNS = tested on: U251 CNS
UACC-257 melanoma = tested on: UACC-257 melanoma
UACC-62 melanoma = tested on: UACC-62 melanoma
UO-31 renal = tested on: UO-31 renal

SMILES: Cc1ccc(-c2csc(N/N=C/c3nc4ccccc4n3C3CC3)n2)cc1
- GI50 (786-0 renal): 4.12 µM
- TGI (786-0 renal): 16 µM
- GI50 (A498 renal): 14.4 µM
- TGI (A498 renal): 33.6 µM
- GI50 (A549 NSCLC): 5.55 µM
- TGI (A549 NSCLC): 26.9 µM
- GI50 (ACHN renal): 1580 nM
- TGI (ACHN renal): 3.08 µM
- GI50 (BT-549 breast): 4.47 µM
- TGI (BT-549 breast): 17.6 µM
- GI50 (CAKI-1 renal): 1520 nM
- TGI (CAKI-1 renal): 3.07 µM
- GI50 (CCRF-CEM leukemia): 2150 nM
- TGI (CCRF-CEM leukemia): 5.39 µM
- GI50 (DU-145 prostate): 1830 nM
- TGI (DU-145 prostate): 3.42 µM
- GI50 (EKVX NSCLC): 21 µM
- TGI (EKVX NSCLC): 55.9 µM
- GI50 (HCC-2998 colon): 16.2 µM
- TGI (HCC-2998 colon): 46.5 µM
- GI50 (HL-60(TB) leukemia): 1860 nM
- TGI (HL-60(TB) leukemia): 4.38 µM
- GI50 (HOP-62 NSCLC): 3.67 µM
- TGI (HOP-62 NSCLC): 49.7 µM
- GI50 (HOP-92 NSCLC): 1650 nM
- TGI (HOP-92 NSCLC): 3.13 µM
- GI50 (HS 578T breast): 11.7 µM
- TGI (HS 578T breast): 57 µM
- GI50 (HT29 colon): 1840 nM
- TGI (HT29 colon): 3.48 µM
- GI50 (IGROV1 ovarian): 5.73 µM
- TGI (IGROV1 ovarian): 35.9 µM
- GI50 (KM12 colon): 16.3 µM
- TGI (KM12 colon): 59.8 µM
- GI50 (LOX IMVI melanoma): 4.61 µM
- TGI (LOX IMVI melanoma): 36.4 µM
- GI50 (M14 melanoma): 1750 nM
- TGI (M14 melanoma): 3.43 µM
- GI50 (MALME-3M melanoma): 1990 nM
- TGI (MALME-3M melanoma): 3.84 µM
- GI50 (MCF7 breast): 1920 nM
- TGI (MCF7 breast): 4.39 µM
- GI50 (MDA-MB-231 breast): 10.6 µM
- TGI (MDA-MB-231 breast): 41.4 µM
- GI50 (MDA-MB-435): 10.5 µM
- TGI (MDA-MB-435): 23.6 µM
- GI50 (MOLT-4 leukemia): 2180 nM
- TGI (MOLT-4 leukemia): 4.75 µM
- GI50 (NCI-H226 lung): 8.34 µM
- TGI (NCI-H226 lung): > 100 µM
- GI50 (NCI-H23 lung): 20 µM
- TGI (NCI-H23 lung): 61 µM
- GI50 (NCI-H460 lung): 7.72 µM
- TGI (NCI-H460 lung): 27.1 µM
- GI50 (NCI/ADR-RES ovarian): 13.6 µM
- TGI (NCI/ADR-RES ovarian): > 100 µM
- GI50 (OVCAR-4 ovarian): 1740 nM
- TGI (OVCAR-4 ovarian): 3.33 µM
- GI50 (OVCAR-5 ovarian): 17.6 µM
- TGI (OVCAR-5 ovarian): 39.5 µM
- GI50 (PC-3 prostate): 12 µM
- TGI (PC-3 prostate): 25.7 µM
- GI50 (RPMI-8226 leukemia): 1950 nM
- TGI (RPMI-8226 leukemia): 4.71 µM
- GI50 (RXF 393 renal): 1950 nM
- TGI (RXF 393 renal): 4.46 µM
- GI50 (SF-268 CNS): 4.21 µM
- TGI (SF-268 CNS): 21.1 µM
- GI50 (SF-295 CNS): 45.5 µM
- TGI (SF-295 CNS): > 100 µM
- GI50 (SF-539 CNS): 12.2 µM
- TGI (SF-539 CNS): 27.5 µM
- GI50 (SK-MEL-28 melanoma): 1820 nM
- TGI (SK-MEL-28 melanoma): 3.35 µM
- GI50 (SK-MEL-5 melanoma): 2040 nM
- TGI (SK-MEL-5 melanoma): 11.4 µM
- GI50 (SK-OV-3 ovarian): 8.53 µM
- TGI (SK-OV-3 ovarian): > 100 µM
- GI50 (SN12C renal): 8.55 µM
- TGI (SN12C renal): 31.5 µM
- GI50 (SNB-19 CNS): 5.19 µM
- TGI (SNB-19 CNS): 79.4 µM
- GI50 (SNB-75 CNS): 1860 nM
- TGI (SNB-75 CNS): 3.9 µM
- GI50 (SR leukemia): 2020 nM
- TGI (SR leukemia): 5.63 µM
- GI50 (SW-620 colon): 1620 nM
- TGI (SW-620 colon): 3.29 µM
- GI50 (T-47D breast): 2140 nM
- TGI (T-47D breast): 5.27 µM
- GI50 (TK-10 renal): 1680 nM
- TGI (TK-10 renal): 3.05 µM
- GI50 (U251 CNS): 2720 nM
- TGI (U251 CNS): 8.33 µM
- GI50 (UACC-257 melanoma): 1510 nM
- TGI (UACC-257 melanoma): 2930 nM
- GI50 (UACC-62 melanoma): 16.5 µM
- TGI (UACC-62 melanoma): 31 µM
- GI50 (UO-31 renal): 1600 nM
- TGI (UO-31 renal): 3.05 µM
